In PubChem BioAssay AID2286 (Southern Research Specialized Biocontainment Screening …, 2010):
Calls of active or inactive are those of the source.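 How the source made its calls: active means minimum cell viability of 80% or lower across the dose range, counted as toxic; inactive means minimum cell viability above 80%.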

How the values were obtained:
[1] = MAGI-CCR5 and HeLa-R5-16 cytotoxicity, dose response, cytotoxicity control for HIV-1 fusion inhibitor project, cell-based, MAGI and MAGI-HeLa co-culture (AID 2286); conditions: MAGI-CCR5 cells viability, CellTiter-Glo ATP luminescence; for minimum viability: measured here: MAGI minimum viability across doses;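 on all read-outs here: cells exposed to compound for at least 64 h before ATP readout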;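 on minimum viability: 100% = median of DMSO vehicle wells with no ATP signal meaning 0%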;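 on viability: 100% = median of DMSO vehicle wells with no ATP signal meaning 0%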
[2] = tested on: MAGI-CCR5 cells viability, CellTiter-Glo ATP luminescence; experiment: as above
[3] = MAGI-HeLa co-culture viability, at 50 µM, stronger effect = lower value
[4] = measured here: MAGI + HeLa-R5-16 co-culture viability
[5] = at 1.56 µM, stronger effect = lower value

Row | SMILES | viability [1, 3] | minimum viability ([1]; at 50 µM, stronger effect = lower value) | CC50 [2] | CC50 [2, 4] | viability ([1]; at 50 µM (top of the series)) | minimum viability [1, 5] | viability ([1]; at 25 µM (top of the series)) | minimum viability ([1]; at 25 µM, stronger effect = lower value) | minimum viability ([1]; at 12.5 µM, stronger effect = lower value) | minimum viability ([1]; at 3.13 µM, stronger effect = lower value)
1 | O=C(O)COc1ccc(/C=C/C(=O)c2ccc(C3CCCCC3)cc2)cc1 | 76.3% | 48.7% | 49.7 µM | > 50 µM | – | – | – | – | – | –
2 | CC(C)(C)c1ccc(S(=O)(=O)/N=C2\C=C(NS(=O)(=O)c3ccccc3)C(=O)c3ccccc32)cc1 | 51.2% | 51.5% | – | > 50 µM | – | – | – | – | – | –
3 | COc1cc(/C=C2\SC(=S)NC2=O)ccc1OS(=O)(=O)c1ccccc1 | 35.9% | 24.8% | 17.9 µM | 40.7 µM | – | – | – | – | – | –
4 | O=C(NN1C(=O)/C(=C/c2ccc(O)cc2)SC1=S)c1ccccc1O | 36.5% | 27.6% | 26.7 µM | 41.3 µM | – | – | – | – | – | –
5 | CC(/C=C1\SC(=S)N(CCCC(=O)Nc2ccc(C(=O)O)cc2)C1=O)=C\c1ccccc1 | 69.6% | 60.9% | – | > 50 µM | – | – | – | – | – | –
6 | CCn1nc([N+](=O)[O-])c(C(C#N)c2nc3cc(C(F)(F)F)ccc3s2)c(Cl)c1=O (centres undefined) | – | 22.2% | 27.8 µM | – | – | – | – | – | – | –
7 | COc1ccc(C(=O)/C=C/c2ccc(-c3ccccc3)cc2)cc1CSCC(=O)O | 5.69% | 3.11% | 13 µM | 23.2 µM | – | – | – | – | – | –
8 | COc1ccc2c(c1)cc(C(=O)N/N=C/c1c(O)c(C(=O)O)cc3ccccc13)n2C | 75.1% | – | – | > 50 µM | 95.6% (inactive) | 89.5% | – | – | – | –
9 | O=C1NC(=Nc2ccccc2Cl)S/C1=C\c1cccc([N+](=O)[O-])c1O | 73.6% | 72.6% | – | > 50 µM | – | – | – | – | – | –
10 | Brc1ccc(N/N=C(/N=Nc2nn[nH]n2)c2ccccc2)cc1 | 20.1% | 44.6% | 32.8 µM | 23.5 µM | – | – | – | – | – | –
11 | CC(C(=O)Nc1ccc(O)c(C(=O)O)c1)N1C(=O)/C(=C/c2cccs2)SC1=S (centres undefined) | 66.1% | 51.2% | 46.4 µM | > 50 µM | – | – | – | – | – | –
12 | O=C(O)c1ccc(Nc2nc(-c3cc4ccccc4oc3=O)cs2)cc1O | 77.6% | 85.6% | – | > 50 µM | 85.6% (inactive) | – | – | – | – | –
13 | COc1cc(/C=C(\C#N)c2nc3ccccc3s2)cc([N+](=O)[O-])c1O | 101% | 43.3% | 38.1 µM | – | – | – | – | – | – | –
14 | CN(C)S(=O)(=O)c1cccc(-c2nn(-c3ccccc3)cc2/C=C2\SC(=S)NC2=O)c1 | 35.7% | 27.8% | 10 µM | 25.5 µM | – | – | – | – | – | –
15 | CSc1nc(SCC(=O)O)c2sc3nc(-c4ccccc4)c4c(c3c2n1)CCC4 | 70.5% | – | – | > 50 µM | – | 88.2% | 99.5% (inactive) | – | – | –
16 | O=C(O)C1Nc2c(O)cccc2C2C=CCC12 (centres undefined) | 21.6% | 23% | 18.6 µM | 22.4 µM | – | – | – | – | – | –
17 | CN(C)S(=O)(=O)c1cccc(-c2nn(-c3ccccc3)cc2/C=C2\SC(=S)N(CC(=O)O)C2=O)c1 | 74.7% | 68.6% | – | > 50 µM | – | – | – | – | – | –
18 | COc1cc([N+](=O)[O-])cc(/C=N/NC(=O)c2cc(-c3ccccc3)nc3ccccc23)c1O | 56.7% | – | – | > 50 µM | – | – | – | 53.9% | – | –
19 | COc1cc(/C=C2\SC(=O)N(Cc3ccc(F)cc3)C2=O)cc([N+](=O)[O-])c1O | 65.7% | 41.9% | 28.7 µM | > 50 µM | – | – | – | – | – | –
20 | CCCCCCCCCCCCCCCCn1cc[n+](CC(C)=O)c1 | 3.56% | 2.77% | 1.36 µM | 2.09 µM | – | – | – | – | – | –

Row | SMILES | viability [1, 3] | minimum viability ([1]; at 50 µM, stronger effect = lower value) | CC50 [2] | CC50 [2, 4] | viability ([1]; at 50 µM (top of the series)) | minimum viability [1, 5] | viability ([1]; at 25 µM (top of the series)) | minimum viability ([1]; at 25 µM, stronger effect = lower value) | minimum viability ([1]; at 12.5 µM, stronger effect = lower value) | minimum viability ([1]; at 3.13 µM, stronger effect = lower value)
21 | Nc1c(S(=O)(=O)O)cc(NC(=O)c2ccccc2)c2c1C(=O)c1ccccc1C2=O | 50.2% | – | – | 49.2 µM | 103% (inactive) | – | – | 89.2% | – | –
22 | O=c1cc(-c2ccccc2)nc2c(-c3ccccc3)c(C(F)(F)F)[nH]n12 | 81.4% | 53.2% | 49.1 µM | – | – | – | – | – | – | –
23 | Cc1c2c(=O)n(-c3nc4ccccc4s3)nc-2cc(O)n1Cc1ccccc1 | 49.2% | 42.5% | 33.2 µM | > 50 µM | – | – | – | – | – | –
24 | COc1ccc(-c2nn(-c3ccccc3)cc2/C=C2/SC(=S)N(CCC(=O)O)C2=O)c(C)c1 | 71.9% | 52% | 48.6 µM | > 50 µM | – | – | – | – | – | –
25 | CCOc1ccc(CCNC(=O)c2ccc3c(=O)[nH]c4c(C(=O)NC(C)C)sc(=S)n4c3c2)cc1 | 93.9% | 45.6% | 37.2 µM | – | – | – | – | – | – | –
26 | O=C(O)c1cc(-c2ccc(-c3c(-c4ccc5c(c4)OCO5)noc3-c3ccsc3)cc2)nc2ccccc12 | 64.8% | 40.9% | 32.5 µM | > 50 µM | – | – | – | – | – | –
27 | O=C(Nc1ccccc1Cc1ccccc1)c1ccccc1NS(=O)(=O)c1ccc(Cl)s1 | 26.2% | – | 1.68 µM | 5.85 µM | – | – | – | – | 15.3% | –
28 | COc1ccc(C(=O)/C=C/c2ccc(OCc3ccccc3)cc2)cc1CSCC(=O)O | 86.3% | 42.6% | 46 µM | – | – | – | – | – | – | –
29 | O=C(NC(=S)Nc1ccccc1C(=O)O)c1ccc(-c2ccc(Br)cc2)o1 | 59.6% | 77.9% | – | > 50 µM | – | – | – | – | – | –
30 | O=C(O)c1cccc2c1NC(c1cccc([N+](=O)[O-])c1)C1CC(Sc3ccccc3[N+](=O)[O-])C(Cl)C21 (centres undefined) | 48.4% | 53.6% | – | 47.9 µM | – | – | – | – | – | –
31 | O=[N+]([O-])c1cccc(S(=O)(=O)Nc2nc3ccccc3nc2Nc2cccc(S(=O)(=O)N3CCCCC3)c2)c1 | 20.4% | 19.9% | 7.22 µM | 14.1 µM | – | – | – | – | – | –
32 | Cc1ccccc1C(=O)Nc1cccc(C(=O)N/N=C/c2cc(Cl)cc([N+](=O)[O-])c2O)c1 | 68.4% | 52.8% | – | > 50 µM | – | – | – | – | – | –
33 | O=c1cc(-c2ccccc2Cl)oc2c(NS(=O)(=O)c3cc(Cl)cc(Cl)c3O)ccc(O)c12 | 20.8% | 16.3% | 5.61 µM | 15.6 µM | – | – | – | – | – | –
34 | O=[N+]([O-])c1cc(Cl)cc(/C=N/NC(=S)Nc2ccc(S(=O)(=O)N3CCOCC3)cc2)c1O | 65.6% | – | – | > 50 µM | 98.8% (inactive) | – | – | – | – | 89.3%
35 | O=C(O)CN1C(=O)/C(=C\c2cc(Br)ccc2OCc2ccc(Cl)cc2Cl)SC1=S | 37.6% | 93.8% | – | 25.6 µM | 93.8% (inactive) | – | – | – | – | –
36 | CCC(C)(C)C1CCc2c(sc(NC(=O)c3ccccc3C(=O)O)c2C#N)C1 (centres undefined) | 50.7% | 55.5% | – | > 50 µM | – | – | – | – | – | –
37 | O=[N+]([O-])c1cc(Cl)cc(/C=N/NC(=S)Nc2cc(S(=O)(=O)N3CCOCC3)ccc2Cl)c1O | 65.7% | 34.7% | 31.1 µM | > 50 µM | – | – | – | – | – | –
38 | CSc1nnc(-c2ccccc2N=Cc2c(C)[nH]n(-c3ccc4ccccc4c3)c2=O)c(=O)[nH]1 | 55.5% | 53.7% | – | > 50 µM | – | – | – | – | – | –
39 | C/C(=N\Nc1ccc(C(=O)O)cc1)c1ccc2c(c1)Nc1ccccc1S2 | 52.7% | 47.2% | 46.2 µM | 26.2 µM | – | – | – | – | – | –
40 | O=C(O)CN1C(=O)/C(=C\c2ccccc2OCc2ccc(Cl)cc2Cl)SC1=S | 67.5% | 84.5% | – | > 50 µM | 84.5% (inactive) | – | – | – | – | –
